Consider two compounds from publication PMC9769694, “Discovery of Two Inhibitors of the Type IV Pilus Assembly ATPase PilB as Potential Antivirulence Compounds” (Microbiology Spectrum, 2022).

For one experiment, the target named is T1, CtPilBΔN (Chloracidobacterium thermophilum, UniProt G2LDI3).
T1 sequence (G2LDI3 140-614): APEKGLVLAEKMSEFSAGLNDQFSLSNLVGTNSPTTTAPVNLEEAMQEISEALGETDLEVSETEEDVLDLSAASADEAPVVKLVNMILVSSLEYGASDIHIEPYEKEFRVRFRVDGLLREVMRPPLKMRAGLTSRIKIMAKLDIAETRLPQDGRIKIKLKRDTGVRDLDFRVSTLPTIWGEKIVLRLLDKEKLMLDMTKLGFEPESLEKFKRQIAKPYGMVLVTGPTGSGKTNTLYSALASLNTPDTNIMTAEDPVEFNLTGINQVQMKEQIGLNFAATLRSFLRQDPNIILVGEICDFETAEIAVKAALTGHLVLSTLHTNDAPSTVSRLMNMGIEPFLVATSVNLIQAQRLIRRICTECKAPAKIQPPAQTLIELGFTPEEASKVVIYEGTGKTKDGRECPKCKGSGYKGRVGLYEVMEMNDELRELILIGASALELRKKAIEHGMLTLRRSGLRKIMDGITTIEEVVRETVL
Briefly: ATPase assay of truncated CtPilB variant without N-terminal MshEN domain. The format is biochemical. The following applies: read-out: IC50, ATPase activity of PilBΔN. The source says:
CtPilB, like its orthologue MshE ([35]), has a MshEN-like cyclic di-GMP-binding domain at its N terminus and a well-conserved ATPase domain at its C terminus ([28], [29]). To determine which domain the inhibitors interact with, we tested the effects of benserazide and levodopa on the ATPase activity of a truncated CtPilB variant (PilBΔN) without the N-terminal MshEN domain ([29]). […] These values are similar to those against the full-length PilB (Fig. 2).
The full-length CtPilB and the CtPilBΔN variant (with the first 139 residues at the N terminus truncated) were purified as preciously described ([29]). The HTS was conducted using 384-well microplates (Greiner, cat no. 781101). Each microwell for the screen contained a 15-μL reaction mixture consisting of 75 nM CtPilB, 0.5 mM ATP, 20 μM of a library compound, and 2% DMSO in activity buffer (50 mM N-tris(hydroxymethyl)methyl-3-aminopropanesulfonic acid [TAPS], 50 mM Tris, 75 mM KCl, 50 mM sodium acetate, 5 mM MgCl2, 50 mM ZnCl2 [pH 8.7]) ([29]). Reaction mixtures were incubated at 55°C for 10 min and transferred to ice for 5 min to stop the enzymatic reaction. […] Absorbance at 620 nm (A620) was measured using a SpectraMax M5 microplate reader at room temperature. […]
The effects of inhibitors on the ATPase activity of CtPilB and CtPilBΔN and the binding of MANT-ATP were determined as described previously ([28], [29]). […]

The subject of experiment [1] is A. nosocomialis twitching motility. Briefly: Twitching motility, crystal violet stained twitching area. Type of experiment: cell-based, Acinetobacter nosocomialis. The following applies: WT M2 strain; for effect on twitching of the WT strain at 128 μM: compared with ΔpilA; for concentration significantly reducing twitching: P < 0.05. An excerpt:
The inhibitors may thus interact with conserved features of the PilB ATPase family. A. nosocomialis PilB ([19]), whose N terminus is not similar to the MshEN domain (data not shown), shares ~53% identity and ~74% homology with MxPilB and MC3PilB in the ATPase domain (Fig. S1). We analyzed whether benserazide and levodopa could impact the T4P-powered twitching motility ([19], [44]) of A. nosocomialis (Fig. 7), an opportunistic pathogen in the Acinetobacter calcoaceticus-Acinetobacter baumannii (ACB) complex ([45]). As shown in Fig. 7A and B and Fig. S7, benserazide and levodopa impede the twitching motility of WT A. nosocomialis in a concentration-dependent manner.
FIG 7 Benserazide and levodopa inhibit Acinetobacter nosocomialis twitching motility and biofilm formation. (A and B) Twitching motility is correlated with the twitching area (cm^2) of the A. nosocomialis wild-type (WT) strain in the presence of (A) benserazide or (B) levodopa, with the control (no inhibitor) normalized to 1. Data are from 3 independent experiments, each performed in triplicates and represented by dots of the same color. (C and D) Biofilms formed by A. nosocomialis with (C) benserazide or (D) levodopa were analyzed by a microplate assay with crystal violet (CV) staining. Results from three independent experiments, each performed in quadruplicates and represented by dots of the same color, are shown. Horizontal lines indicate overall averages, and asterisks (*) signify that values at the indicated concentration are statistically different from those of the control (P < 0.05).
The A. nosocomialis wild-type M2 strain and an isogenic pilA deletion (ΔpilA) mutant ([19], [46]) were used in this study. They were grown and maintained using MacConkey medium at 37°C. The twitching motility of the M2 strain of A. nosocomialis was analyzed with 1% crystal violet (CV) for staining, and twitching areas were used as measures of motility as previously described ([46]). These motility assays were conducted in triplicates and the stained area of the ΔpilA mutant was subtracted from that of the WT for data analysis. A. nosocomialis biofilm formation was analyzed using microplates and CV staining as previously described ([53], [54]). The biofilm assays were conducted in quadruplicate in MacConkey medium with tissue culture-treated microtiter plates (Falcon). CV absorbance (Acv) was measured at 590 nm using Infinite M200 PRO in clear polystyrene 96-well microplates (ExtraGene). Absorbance for each well was read 16 times using Multiple Reads with the average as the final Acv value. Readings from control wells without bacteria were subtracted for normalization. Statistical differences were determined using a Student’s t test.

Broadly, the IC50 is the concentration that gives 50% inhibition. For the compound `NC(CO)C(=O)NNCc1ccc(O)c(O)c1O` (stereo not drawn) [benserazide], the IC50 on CtPilBΔN was 2.2 ± 0.4 µM. In experiment [1], the “effect on twitching of the WT strain at 128 μM” value is on record as “eliminated twitching” and the “concentration significantly reducing twitching” value was at least 32 µM.
For `N[C@@H](Cc1ccc(O)c(O)c1)C(=O)O` [levodopa, 3,4-dihydroxyphenylalanine], in that order: 76.2 ± 9.2 µM, “eliminated twitching” and at least 32 µM.
